Measurements taken from ChEMBL document CHEMBL1201862, “PubChem BioAssay data set” (2004).
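Step 1: Grow cells in 96-well plates. Step 2: Expose to compound for 48 hours at 5 concentrations. Step 3: Interpolate endpoints linearly; if unreached, use highest concentration. Abbreviation: GI50, concentration required for 50% inhibition of growth.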 The source made the active and inactive calls. Rule as the data show it: active = GI50 up to about 1.1 µM and inactive = higher.

Legend:
Assay in all cases: DTP human tumour cell line panel, 48 h
EKVX = test system: EKVX
LOX IMVI = test system: LOX IMVI
RXF 393 = test system: RXF 393
SF-295 = test system: SF-295
NCI-H23 = test system: NCI-H23
ACHN = test system: ACHN
K562 = test system: K562
OVCAR-3 = test system: OVCAR-3
CAKI-1 = test system: CAKI-1
SF-268 = test system: SF-268
HOP-92 = test system: HOP-92
SK-MEL-28 = test system: SK-MEL-28
SR = test system: SR
COLO 205 = test system: COLO 205
NCI-H522 = test system: NCI-H522
UO-31 = test system: UO-31
SN12C = test system: SN12C
OVCAR-4 = test system: OVCAR-4
HCT-15 = test system: HCT-15

Row | SMILES | GI50 (EKVX) | GI50 (LOX IMVI) | GI50 (RXF 393) | GI50 (SF-295) | GI50 (NCI-H23) | GI50 (ACHN) | GI50 (K562) | GI50 (OVCAR-3) | GI50 (CAKI-1) | GI50 (SF-268) | GI50 (HOP-92) | GI50 (SK-MEL-28) | GI50 (SR) | GI50 (COLO 205) | GI50 (NCI-H522) | GI50 (UO-31) | GI50 (SN12C) | GI50 (OVCAR-4) | GI50 (HCT-15) [µM]
1 | O=c1c2cccnc2ncn1CCN1CCCC1 | > 100 µM (inactive) | > 100 µM (inactive) | > 100 µM (inactive) | > 100 µM (inactive) | > 100 µM (inactive) | > 100 µM (inactive) | > 100 µM (inactive) | > 100 µM (inactive) | > 100 µM (inactive) | > 100 µM (inactive) | > 100 µM (inactive) | > 100 µM (inactive) | > 100 µM (inactive) | > 100 µM (inactive) | > 100 µM (inactive) | > 100 µM (inactive) | > 100 µM (inactive) | > 100 µM (inactive) | 
2 | CCOC(=O)N1CCc2cc(OC)c(OC)cc2/C1=C\c1ccc(OC)c(OC)c1 | 28.1 µM (inactive) | 18.8 µM (inactive) | 17.1 µM (inactive) | 22.9 µM (inactive) | 39 µM (inactive) | 26.3 µM (inactive) | > 10 µM (inactive) | 26 µM (inactive) |  | 37.8 µM (inactive) | 15.8 µM (inactive) | 33.3 µM (inactive) | 29.1 µM (inactive) | 21.6 µM (inactive) | 25 µM (inactive) | 21 µM (inactive) | 26.4 µM (inactive) |  | 31
3 | COc1ccc(C2=Nc3ccccc3SC(C)C2)cc1OC (configuration not stated) | 24.5 µM (inactive) | 17.9 µM (inactive) |  | 21 µM (inactive) | 17.7 µM (inactive) | 22.1 µM (inactive) | 25.5 µM (inactive) | 16.6 µM (inactive) | 19.6 µM (inactive) | 22 µM (inactive) | 38.1 µM (inactive) | 24.6 µM (inactive) | 20.8 µM (inactive) | 20.4 µM (inactive) | 17.4 µM (inactive) | 17.8 µM (inactive) | 20.3 µM (inactive) | 22.1 µM (inactive) | 17.8
4 | Cc1c[n+]2c3ccccc3c3ccccc3c2s1.[O-][Cl+3]([O-])([O-])[O-] | 4.89 µM (inactive) | 15.2 µM (inactive) | 0.043 µM (active) | 5.97 µM (inactive) | 0.422 µM (active) | 42.6 µM (inactive) | 4.29 µM (inactive) | 0.787 µM (active) | 3.2 µM (inactive) | 0.697 µM (active) | 16.6 µM (inactive) | 2.25 µM (inactive) | 3.33 µM (inactive) | 7.89 µM (inactive) | 1.73 µM (inactive) | 3.25 µM (inactive) | 2.61 µM (inactive) | 8.73 µM (inactive) | > 100
5 | C=C1C[C@]23C[C@@]1(O)CC[C@H]2[C@@]12C=C[C@H](O)[C@@](C)(C(=O)O1)[C@H]2[C@@H]3C(=O)O [GIBBERELLIN A3] | > 100 µM (inactive) | > 100 µM (inactive) | > 100 µM (inactive) | > 100 µM (inactive) | > 100 µM (inactive) |  | > 100 µM (inactive) | > 100 µM (inactive) | > 100 µM (inactive) | > 100 µM (inactive) | > 100 µM (inactive) | > 100 µM (inactive) | > 100 µM (inactive) | > 100 µM (inactive) | > 100 µM (inactive) | > 100 µM (inactive) | > 100 µM (inactive) | > 100 µM (inactive) | > 100
6 | CC(C)C.C[N+](C)(C)C.OC(c1ccccc1)(C(F)(F)F)C(F)(F)F.OC(c1ccccc1)(C(F)(F)F)C(F)(F)F.[SiH3-] | 3.73 µM (inactive) |  | 3.18 µM (inactive) | 3.42 µM (inactive) | 3.25 µM (inactive) | 8.51 µM (inactive) | 3.89 µM (inactive) | 0.678 µM (active) | 11.3 µM (inactive) |  | < 0.01 µM (active) | 12.4 µM (inactive) | 2.09 µM (inactive) | 6.49 µM (inactive) | 6.01 µM (inactive) | 5.79 µM (inactive) | 5.68 µM (inactive) | 7.59 µM (inactive) | 2.13
7 | O=C(/C(=N/Nc1ccccc1)c1ccc([N+](=O)[O-])cc1)c1ccc([N+](=O)[O-])cc1 | > 100 µM (inactive) |  | > 100 µM (inactive) | 32.1 µM (inactive) | > 100 µM (inactive) | > 100 µM (inactive) | 64.4 µM (inactive) | > 100 µM (inactive) | > 100 µM (inactive) |  | 46.2 µM (inactive) | > 100 µM (inactive) | > 100 µM (inactive) | > 100 µM (inactive) | 21.9 µM (inactive) | > 100 µM (inactive) | > 100 µM (inactive) | > 100 µM (inactive) | 39
8 | COc1ccc2c(=O)c(C)c(-c3ccccc3)oc2c1CN(C)C [DIMEFLINE] |  | > 100 µM (inactive) | > 100 µM (inactive) | > 100 µM (inactive) | > 100 µM (inactive) | > 100 µM (inactive) | > 100 µM (inactive) |  | > 100 µM (inactive) |  | > 100 µM (inactive) |  | > 100 µM (inactive) | > 100 µM (inactive) | > 100 µM (inactive) | > 100 µM (inactive) |  | > 100 µM (inactive) | 
